Results reported in PubChem BioAssay AID1259407 (Chemical Carcinogenesis Research Information System (CCRIS), 2018).
Calls of active or inactive are those of the source. No rule for the calls is given here.

System: CCRIS mutagenicity, Ames/micronucleus/aberration tests
Assay: CCRIS mutagenicity studies
[1] = Test System: AMES SALMONELLA TYPHIMURIUM, Strain/Indicator: TA98, Metabolic Activation: HAMSTER, LIVER, S-9, AROCLOR 1254 (10%), Method: PREINCUBATION
[2] = Test System: AMES SALMONELLA TYPHIMURIUM, Strain/Indicator: TA98, Metabolic Activation: NONE, Method: PREINCUBATION
[3] = Test System: AMES SALMONELLA TYPHIMURIUM, Strain/Indicator: TA98, Metabolic Activation: RAT, LIVER, S-9, AROCLOR 1254 (10%), Method: PREINCUBATION
[4] = Test System: AMES SALMONELLA TYPHIMURIUM, Strain/Indicator: TA100, Metabolic Activation: HAMSTER, LIVER, S-9, AROCLOR 1254 (10%), Method: PREINCUBATION
[5] = Test System: AMES SALMONELLA TYPHIMURIUM, Strain/Indicator: TA100, Metabolic Activation: NONE, Method: PREINCUBATION
[6] = Test System: AMES SALMONELLA TYPHIMURIUM, Strain/Indicator: TA100, Metabolic Activation: RAT, LIVER, S-9, AROCLOR 1254 (10%), Method: PREINCUBATION
[7] = Test System: AMES SALMONELLA TYPHIMURIUM, Strain/Indicator: TA1535, Metabolic Activation: HAMSTER, LIVER, S-9, AROCLOR 1254 (10%), Method: PREINCUBATION
[8] = Test System: AMES SALMONELLA TYPHIMURIUM, Strain/Indicator: TA1535, Metabolic Activation: NONE, Method: PREINCUBATION
[9] = Test System: AMES SALMONELLA TYPHIMURIUM, Strain/Indicator: TA1535, Metabolic Activation: RAT, LIVER, S-9, AROCLOR 1254 (10%), Method: PREINCUBATION
[10] = Test System: AMES SALMONELLA TYPHIMURIUM, Strain/Indicator: TA1537, Metabolic Activation: HAMSTER, LIVER, S-9, AROCLOR 1254 (10%), Method: PREINCUBATION
[11] = Test System: AMES SALMONELLA TYPHIMURIUM, Strain/Indicator: TA1537, Metabolic Activation: NONE, Method: PREINCUBATION
[12] = Test System: AMES SALMONELLA TYPHIMURIUM, Strain/Indicator: TA1537, Metabolic Activation: RAT, LIVER, S-9, AROCLOR 1254 (10%), Method: PREINCUBATION
[13] = Test System: AMES SALMONELLA TYPHIMURIUM, Strain/Indicator: TA98, Metabolic Activation: NONE, Method: SUSPENSION/PLATE
[14] = Test System: AMES SALMONELLA TYPHIMURIUM, Strain/Indicator: TA100, Metabolic Activation: NONE, Method: SUSPENSION/PLATE
[15] = Test System: AMES SALMONELLA TYPHIMURIUM, Strain/Indicator: TA98, Metabolic Activation: NONE, Method: STANDARD PLATE
[16] = Test System: AMES SALMONELLA TYPHIMURIUM, Strain/Indicator: TA98, Metabolic Activation: RAT, LIVER, S-9, AROCLOR 1254, Method: STANDARD PLATE
[17] = Test System: AMES SALMONELLA TYPHIMURIUM, Strain/Indicator: TA100, Metabolic Activation: NONE, Method: STANDARD PLATE
[18] = Test System: AMES SALMONELLA TYPHIMURIUM, Strain/Indicator: TA100, Metabolic Activation: RAT, LIVER, S-9, AROCLOR 1254, Method: STANDARD PLATE
[19] = Test System: AMES SALMONELLA TYPHIMURIUM, Strain/Indicator: TA1537, Metabolic Activation: NONE, Method: STANDARD PLATE

**Q.** With Cc1ccccc1N=Nc1ccc(N(C)C)cc1 as the molecule, how does the mutagenic call [1] read?
**A.** inactive; negative

**Q.** And the mutagenic call [2]?
**A.** inactive; negative

**Q.** And the mutagenic call [3]?
**A.** inactive; negative

**Q.** What about the mutagenic call [4] of the same molecule?
**A.** inactive; negative

**Q.** What about the mutagenic call [5] of the same molecule?
**A.** inactive; negative

**Q.** What about the mutagenic call [6] of the same molecule?
**A.** inactive; negative

**Q.** And the mutagenic call [7]?
**A.** inactive; negative

**Q.** And the mutagenic call [8]?
**A.** inactive; negative

**Q.** What about the mutagenic call [9] of the same molecule?
**A.** inactive; negative

**Q.** And the mutagenic call [10]?
**A.** inactive; negative

**Q.** And the mutagenic call [11]?
**A.** inactive; negative

**Q.** What about the mutagenic call [12] of the same molecule?
**A.** inactive; negative

**Q.** What about the mutagenic call (Test System: E. COLI, Strain/Indicator: WP2 UVRA, Metabolic Activation: HAMSTER, LIVER, S-9, AROCLOR 1254, Method: STANDARD PLATE) of the same molecule?
**A.** inactive; negative

**Q.** What about the mutagenic call (Test System: E. COLI, Strain/Indicator: WP2 UVRA, Metabolic Activation: HAMSTER, LIVER, S-9, Method: STANDARD PLATE) of the same molecule?
**A.** inactive; negative

**Q.** What about the mutagenic call (Test System: E. COLI, Strain/Indicator: WP2 UVRA, Metabolic Activation: MOUSE, LIVER, S-9, AROCLOR 1254, Method: STANDARD PLATE) of the same molecule?
**A.** inactive; negative

**Q.** And the mutagenic call (Test System: E. COLI, Strain/Indicator: WP2 UVRA, Metabolic Activation: MOUSE, LIVER, S-9, Method: STANDARD PLATE)?
**A.** inactive; negative

**Q.** What about the mutagenic call (Test System: E. COLI, Strain/Indicator: WP2 UVRA, Metabolic Activation: NONE, Method: STANDARD PLATE) of the same molecule?
**A.** inactive; negative

**Q.** And the mutagenic call (Test System: E. COLI, Strain/Indicator: WP2 UVRA, Metabolic Activation: RAT, LIVER, S-9, AROCLOR 1254, Method: STANDARD PLATE)?
**A.** inactive; negative

**Q.** And the mutagenic call (Test System: E. COLI, Strain/Indicator: WP2 UVRA, Metabolic Activation: RAT, LIVER, S-9, Method: STANDARD PLATE)?
**A.** inactive; negative

**Q.** What does the source list for Cc1ccc([N+](=O)[O-])cc1NO?
**A.** mutagenic call [13]: inactive; negative; mutagenic call (Test System: AMES SALMONELLA TYPHIMURIUM, Strain/Indicator: TA98, Metabolic Activation: RAT, LIVER, S-9, PHENOBARBITAL AND 5,6-BENZOFLAVONE, Method: SUSPENSION/PLATE): inactive; negative; mutagenic call [14]: inactive; negative; mutagenic call (Test System: AMES SALMONELLA TYPHIMURIUM, Strain/Indicator: TA100, Metabolic Activation: RAT, LIVER, S-9, PHENOBARBITAL AND 5,6-BENZOFLAVONE, Method: SUSPENSION/PLATE): inactive; negative

**Q.** With C1CSCSC1 as the molecule, how does the mutagenic call [15] read?
**A.** active; positive

**Q.** What about the mutagenic call [16] of the same molecule?
**A.** inactive; negative

**Q.** And the mutagenic call [17]?
**A.** active; positive

**Q.** And the mutagenic call [18]?
**A.** active; positive

**Q.** What does the source list for CNCCO?
**A.** mutagenic call [1]: inactive; negative; mutagenic call [2]: inactive; negative; mutagenic call [3]: inactive; negative; mutagenic call [4]: inactive; negative; mutagenic call [5]: inactive; negative; mutagenic call [6]: inactive; negative; mutagenic call [7]: inactive; negative; mutagenic call [8]: inactive; negative; mutagenic call [9]: inactive; negative; mutagenic call [10]: inactive; negative; mutagenic call [11]: inactive; negative; mutagenic call [12]: inactive; negative

**Q.** With O=[N+]([O-])c1ccc2ccc3c4c(cc5ccc1c2c53)C=CCC4 as the molecule, how does the mutagenic call (Test System: AMES SALMONELLA TYPHIMURIUM, Strain/Indicator: TA98(1,8-DNP6), Metabolic Activation: NONE, Method: STANDARD PLATE) read?
**A.** active; positive

**Q.** What about the mutagenic call (Test System: AMES SALMONELLA TYPHIMURIUM, Strain/Indicator: TA98(1,8-DNP6), Metabolic Activation: RAT, LIVER, S-9, AROCLOR 1254, Method: STANDARD PLATE) of the same molecule?
**A.** active; positive

**Q.** And the mutagenic call (Test System: AMES SALMONELLA TYPHIMURIUM, Strain/Indicator: TA98(NR), Metabolic Activation: NONE, Method: STANDARD PLATE)?
**A.** active; positive

**Q.** What about the mutagenic call (Test System: AMES SALMONELLA TYPHIMURIUM, Strain/Indicator: TA98(NR), Metabolic Activation: RAT, LIVER, S-9, AROCLOR 1254, Method: STANDARD PLATE) of the same molecule?
**A.** active; positive

**Q.** What about the mutagenic call [15] of the same molecule?
**A.** active; positive

**Q.** And the mutagenic call [16]?
**A.** active; positive

**Q.** What about the mutagenic call [17] of the same molecule?
**A.** active; positive

**Q.** What about the mutagenic call [18] of the same molecule?
**A.** active; positive

**Q.** How did the mutagenic call [13] turn out when CCC[CH2][Sn]=[O] was run?
**A.** inactive; negative

**Q.** And the mutagenic call [14]?
**A.** inactive; negative

**Q.** What does the source list for c1ccc2cnncc2c1?
**A.** mutagenic call (Test System: AMES SALMONELLA TYPHIMURIUM, Strain/Indicator: TA98, Metabolic Activation: HAMSTER, LIVER, S-9, AROCLOR 1254, Method: STANDARD PLATE): inactive; negative; mutagenic call [2]: inactive; negative; mutagenic call [15]: inactive; negative; mutagenic call [16]: inactive; negative; mutagenic call (Test System: AMES SALMONELLA TYPHIMURIUM, Strain/Indicator: TA98, Metabolic Activation: RAT, LIVER, S-9, PCB, Method: PREINCUBATION): inactive; negative; mutagenic call (Test System: AMES SALMONELLA TYPHIMURIUM, Strain/Indicator: TA100, Metabolic Activation: HAMSTER, LIVER, S-9, AROCLOR 1254, Method: STANDARD PLATE): inactive; negative; mutagenic call [5]: inactive; negative; mutagenic call [17]: inactive; negative; mutagenic call [18]: inactive; negative; mutagenic call (Test System: AMES SALMONELLA TYPHIMURIUM, Strain/Indicator: TA100, Metabolic Activation: RAT, LIVER, S-9, PCB, Method: PREINCUBATION): inactive; negative; mutagenic call (Test System: AMES SALMONELLA TYPHIMURIUM, Strain/Indicator: TA1535, Metabolic Activation: HAMSTER, LIVER, S-9, AROCLOR 1254, Method: STANDARD PLATE): inactive; negative; mutagenic call (Test System: AMES SALMONELLA TYPHIMURIUM, Strain/Indicator: TA1535, Metabolic Activation: NONE, Method: STANDARD PLATE): inactive; negative; mutagenic call (Test System: AMES SALMONELLA TYPHIMURIUM, Strain/Indicator: TA1535, Metabolic Activation: RAT, LIVER, S-9, AROCLOR 1254, Method: STANDARD PLATE): inactive; negative; mutagenic call (Test System: AMES SALMONELLA TYPHIMURIUM, Strain/Indicator: TA1537, Metabolic Activation: HAMSTER, LIVER, S-9, AROCLOR 1254, Method: STANDARD PLATE): inactive; negative; mutagenic call [19]: inactive; negative; mutagenic call (Test System: AMES SALMONELLA TYPHIMURIUM, Strain/Indicator: TA1537, Metabolic Activation: RAT, LIVER, S-9, AROCLOR 1254, Method: STANDARD PLATE): inactive; negative; mutagenic call (Test System: AMES SALMONELLA TYPHIMURIUM, Strain/Indicator: TA1538, Metabolic Activation: HAMSTER, LIVER, S-9, AROCLOR 1254, Method: STANDARD PLATE): inactive; negative; mutagenic call (Test System: AMES SALMONELLA TYPHIMURIUM, Strain/Indicator: TA1538, Metabolic Activation: NONE, Method: STANDARD PLATE): inactive; negative; mutagenic call (Test System: AMES SALMONELLA TYPHIMURIUM, Strain/Indicator: TA1538, Metabolic Activation: RAT, LIVER, S-9, AROCLOR 1254, Method: STANDARD PLATE): inactive; negative; mutagenic call (Test System: MOUSE LYMPHOMA, Strain/Indicator: L5178Y (TK+/TK-), Metabolic Activation: NONE, Method: SUSPENSION/PLATE): active; positive. reevaluation of results: equivocal; mutagenic call (Test System: MOUSE LYMPHOMA, Strain/Indicator: L5178Y (TK+/TK-), Metabolic Activation: RAT, LIVER, S-9, AROCLOR 1254, Method: SUSPENSION/PLATE): active; positive. reevaluation of results: positive

**Q.** CN(C)CCNC(=O)c1cccc2cc3ccccc3nc12 was tested. Which mutagenic call [19] did it give?
**A.** active; positive
